The results in this text go back to patent publication US7026350B2, “Water-soluble drugs and methods for their production” (The United States of America as represented by the …, priority 1998, dated 2006).

Like-named read-outs stand apart in the source and are kept apart here.

In one series the test system is N87 cells. In words: N87 proliferation measured by tritiated-thymidine incorporation. The series is classed as cell-based. As for the experimental part: N87 cells were exposed to the 17-demethoxy-17-aminoderivative of geldanamycin indicated in Table 1 below, and the concentration at which the proliferation of the N87 cells was inhibited by 50% was determined in nanomolar units.
(Incorporation of labelled thymidine or its analogues reports DNA synthesis.)

The subject of the next series is HuT102 cells. As to the kind of experiment: Internalization of radiolabeled antibody by HuT102 cells. The series is classed as cell-based. The settings on record: cells washed with dilute acid. On the procedure: This example employs three antibodies, e21, AE1 (from Landolfi, Protein Design Labs, California), and anti-Tac (i.e., Zenapax from Hoffman-LaRoche, Inc., Nutley, N.J.). The antibodies e21 and AE1 bind Her2 with high affinity, and anti-Tac binds CD25 with high affinity. All three antibodies were radiolabeled and incubated with cells expressing the respective ligands on their cell surfaces (N87 cells for e21 and AE1 and HuT102 cells for anti-Tac). Both N87 cells and HuT102 cells are cancer cells that are known to be sensitive to the effects of geldanamycin. (HuT102 cells are cultured cells from an ATL patient available from the inventor's laboratories.) The cells were washed with dilute acid to remove unincorporated radiolabel, and the amount of radiolabel remaining in the cells was measured as an indication of the amount of antibody internalized.

Setting [1] is: tritiated-thymidine incorporation, read-out: concentration that inhibited 50% of the N87 proliferation.

“17-cys-GMB-aminopropylaminogeldanamycin [compound 4]”: the solubility in water result in “Solubility in water” was “water-soluble”.
On to `COC1C=CC=C(C)C(=O)NC2=CC(=O)C(NCCCN)=C(CC(C)CC(OC)C(O)C(C)C=C(C)C1OC(N)=O)C2=O` (centres unmarked) [17-aminopropylamino-geldanamycin, 17-aminopropylaminogeldanamycin], for which the IC50 in the series on N87 cells (setting [1]) worked out at 180 nM.
Take `COC1=C2C[C@@H](C)C[C@H](OC)[C@H](O)[C@@H](C)/C=C(\C)[C@H](OC(N)=O)[C@@H](OC)/C=C\C=C(/C)C(=O)NC(=CC1=O)C2=O` [geldanamycin]: the IC50 in the series with N87 cells (Table 1, read-out: IC50 (nM), proliferation of N87 cells inhibited by 50%) was determined as 8.4 nM; in the series on N87 cells (setting [1]), 8 nM.

B1: anti-Tac: anti-Tac (i.e., Zenapax from Hoffman-LaRoche), binds CD25 with high affinity (antibody, chains of the INN, looked up, V domains shown)
VH: QVQLVQSGAEVKKPGSSVKVSCKASGYTFTSYRMHWVRQAPGQGLEWIGYINPSTGYTEYNQKFKDKATITADESTNTAYMELSSLRSEDTAVYYCARGGGVFDYWGQGTLVTVSS
VL: DIQMTQSPSTLSASVGDRVTITCSASSSISYMHWYQQKPGKAPKLLIYTTSNLASGVPARFSGSGSGTEFTLTISSLQPDDFATYYCHQRSTYPLTFGQGTKVEVK
On to B1, for which the “radiolabel taken up by HuT102 cells (antibody internalized)” value with HuT102 cells is given as “no significant quantity”.
